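Briefly, cells in 96-well plates were exposed to five compound concentrations for 48 h, and endpoints were estimated by linear interpolation. GI50 = concentration required for 50% inhibition of growth. TGI marks complete inhibition of growth.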
Tests used:
Assay in all cases: NCI tumour cell line growth inhibition, 48 h
IGROV1 ovarian = tested on: IGROV1 ovarian
OVCAR-4 ovarian = tested on: OVCAR-4 ovarian
SN12C renal = tested on: SN12C renal
T-47D breast = tested on: T-47D breast
SR leukemia = tested on: SR leukemia
MDA-MB-231 breast = tested on: MDA-MB-231 breast
SF-295 CNS = tested on: SF-295 CNS
MALME-3M melanoma = tested on: MALME-3M melanoma
SK-MEL-5 melanoma = tested on: SK-MEL-5 melanoma
HL-60(TB) leukemia = tested on: HL-60(TB) leukemia

C=C(C)CCC(O)[C@](C)(O)[C@H]1[C@H](O)C[C@@]2(C)[C@@H]3CCc4c(cc(OC5OC(CO)C(O)C(O)C5O)c(O)c4C)C3(C)C(=O)C[C@]12C (some centres not stated)
TGI (IGROV1 ovarian): > 100 µM | TGI (OVCAR-4 ovarian): > 100 µM | TGI (SN12C renal): > 100 µM | TGI (T-47D breast): > 100 µM | TGI (SR leukemia): > 100 µM | TGI (MDA-MB-231 breast): > 100 µM | TGI (SF-295 CNS): > 100 µM | TGI (MALME-3M melanoma): > 100 µM

Cc1cccc(-c2nc(-c3cnccn3)n(Cc3ccccc3)n2)c1
TGI (IGROV1 ovarian): > 100 µM | TGI (OVCAR-4 ovarian): > 100 µM | TGI (SN12C renal): > 100 µM | TGI (T-47D breast): > 100 µM | TGI (SK-MEL-5 melanoma): > 100 µM | TGI (SR leukemia): > 100 µM | TGI (HL-60(TB) leukemia): > 100 µM | TGI (MDA-MB-231 breast): > 100 µM | TGI (SF-295 CNS): > 100 µM

CC1(C)N([O-])[N+](=O)C1(C)O (configuration not stated)
TGI (IGROV1 ovarian): > 100 µM | TGI (OVCAR-4 ovarian): > 100 µM | TGI (SN12C renal): > 100 µM | TGI (T-47D breast): > 100 µM | TGI (SK-MEL-5 melanoma): > 100 µM | TGI (SR leukemia): > 100 µM | TGI (HL-60(TB) leukemia): > 100 µM | TGI (MDA-MB-231 breast): > 100 µM | TGI (MALME-3M melanoma): > 100 µM

O=C(O)c1ccc(Nc2cnc3cc(C(F)(F)F)ccc3n2)cc1
TGI (IGROV1 ovarian): > 100 µM | TGI (SN12C renal): > 100 µM | TGI (T-47D breast): 53.8 µM | TGI (SK-MEL-5 melanoma): > 100 µM | TGI (SR leukemia): > 100 µM | TGI (HL-60(TB) leukemia): > 100 µM | TGI (MDA-MB-231 breast): > 100 µM | TGI (SF-295 CNS): > 100 µM | TGI (MALME-3M melanoma): > 100 µM

COC(=O)[C@H](Cc1ccccc1)NC(=O)N(CCNC(=O)OC(C)(C)C)c1ccccc1
TGI (IGROV1 ovarian): > 100 µM | TGI (OVCAR-4 ovarian): > 100 µM | TGI (SN12C renal): > 100 µM | TGI (T-47D breast): > 100 µM | TGI (SK-MEL-5 melanoma): > 100 µM | TGI (SR leukemia): > 100 µM | TGI (HL-60(TB) leukemia): > 100 µM | TGI (MDA-MB-231 breast): > 100 µM | TGI (SF-295 CNS): > 100 µM | TGI (MALME-3M melanoma): > 100 µM

c1ccc2c(c1)-c1ccccc1C2NC1=NCCO1
TGI (IGROV1 ovarian): 40.3 µM | TGI (OVCAR-4 ovarian): > 100 µM | TGI (SN12C renal): > 100 µM | TGI (T-47D breast): > 100 µM | TGI (SK-MEL-5 melanoma): 29.1 µM | TGI (SR leukemia): 79.3 µM | TGI (HL-60(TB) leukemia): 48.5 µM | TGI (MDA-MB-231 breast): 56 µM | TGI (SF-295 CNS): > 100 µM | TGI (MALME-3M melanoma): 27 µM

CC/C=C\C=C/C(=O)N/C=C/CCC
TGI (IGROV1 ovarian): > 100 µM | TGI (OVCAR-4 ovarian): > 100 µM | TGI (SN12C renal): > 100 µM | TGI (T-47D breast): > 100 µM | TGI (SR leukemia): > 100 µM | TGI (HL-60(TB) leukemia): > 100 µM | TGI (MDA-MB-231 breast): > 100 µM | TGI (MALME-3M melanoma): > 100 µM

S=C(S)NCCN1CCNCC1
TGI (IGROV1 ovarian): > 100 µM | TGI (OVCAR-4 ovarian): > 100 µM | TGI (SN12C renal): > 100 µM | TGI (T-47D breast): 60.7 µM | TGI (SK-MEL-5 melanoma): > 100 µM | TGI (SR leukemia): > 100 µM | TGI (HL-60(TB) leukemia): 8.01 µM | TGI (MDA-MB-231 breast): > 100 µM | TGI (SF-295 CNS): > 100 µM | TGI (MALME-3M melanoma): 82.5 µM

COc1cc(N(CCCl)CCCl)ccc1/C=N\NC(=O)c1cccnc1
GI50 (IGROV1 ovarian): 36 µM | TGI (IGROV1 ovarian): > 100 µM | GI50 (SN12C renal): 30 µM | TGI (SN12C renal): > 100 µM | GI50 (T-47D breast): 11.4 µM | TGI (T-47D breast): > 100 µM | GI50 (SK-MEL-5 melanoma): 16.4 µM | TGI (SK-MEL-5 melanoma): 36 µM | GI50 (SR leukemia): 13.7 µM | TGI (SR leukemia): > 100 µM | GI50 (HL-60(TB) leukemia): 11.4 µM | TGI (HL-60(TB) leukemia): 40.4 µM | GI50 (MDA-MB-231 breast): 33.8 µM | TGI (MDA-MB-231 breast): > 100 µM | GI50 (SF-295 CNS): 4.31 µM | TGI (SF-295 CNS): 35.7 µM | GI50 (MALME-3M melanoma): 38.3 µM | TGI (MALME-3M melanoma): > 100 µM

C#CCNC(=O)CC[C@@H](C)[C@H]1CC[C@H]2[C@@H]3CC[C@@H]4CC(=O)CC[C@]4(C)[C@H]3CC[C@]12C
GI50 (IGROV1 ovarian): 0.649 µM | TGI (IGROV1 ovarian): 3.13 µM | GI50 (OVCAR-4 ovarian): 14.9 µM | TGI (OVCAR-4 ovarian): 52.6 µM | GI50 (SN12C renal): 13.2 µM | TGI (SN12C renal): 32.1 µM | GI50 (T-47D breast): 8 µM | TGI (T-47D breast): 68.2 µM | GI50 (SK-MEL-5 melanoma): 8.71 µM | TGI (SK-MEL-5 melanoma): 23.2 µM | GI50 (SR leukemia): 3.17 µM | TGI (SR leukemia): 33.3 µM | GI50 (HL-60(TB) leukemia): 3.47 µM | TGI (HL-60(TB) leukemia): 18 µM | GI50 (MDA-MB-231 breast): 16.5 µM | TGI (MDA-MB-231 breast): 38.9 µM | GI50 (SF-295 CNS): 19.3 µM | TGI (SF-295 CNS): 49.4 µM | GI50 (MALME-3M melanoma): 14 µM | TGI (MALME-3M melanoma): 31.7 µM

CN(/N=C/C=N/N(C)C1=NCCN1)C1=NCCN1
TGI (IGROV1 ovarian): > 100 µM | TGI (OVCAR-4 ovarian): > 100 µM | TGI (SN12C renal): > 100 µM | TGI (T-47D breast): > 100 µM | TGI (SK-MEL-5 melanoma): > 100 µM | TGI (SR leukemia): > 100 µM | TGI (MDA-MB-231 breast): > 100 µM | TGI (SF-295 CNS): > 100 µM | TGI (MALME-3M melanoma): > 100 µM

COCCCNc1c2ccccc2nc2ccccc12
TGI (IGROV1 ovarian): 22.9 µM | TGI (OVCAR-4 ovarian): 20.6 µM | TGI (SN12C renal): 15.1 µM | TGI (T-47D breast): 6.89 µM | TGI (SK-MEL-5 melanoma): 4.51 µM | TGI (SR leukemia): 12.1 µM | TGI (HL-60(TB) leukemia): 15.2 µM | TGI (MDA-MB-231 breast): 12.5 µM | TGI (SF-295 CNS): 14.9 µM | TGI (MALME-3M melanoma): 7.17 µM

C/C(=N\O)c1cccc(Nc2c3ccccc3nc3occc23)c1
TGI (IGROV1 ovarian): 13.2 µM | TGI (OVCAR-4 ovarian): 9.59 µM | TGI (SN12C renal): > 100 µM | TGI (T-47D breast): 21.7 µM | TGI (SK-MEL-5 melanoma): > 100 µM | TGI (SR leukemia): > 100 µM | TGI (HL-60(TB) leukemia): > 100 µM | TGI (MDA-MB-231 breast): > 100 µM | TGI (SF-295 CNS): 26.7 µM | TGI (MALME-3M melanoma): 9.7 µM

O=C(/C=C/c1cccc(Br)c1)N1CCN(CCOC(c2ccccc2)c2ccccc2)CC1
TGI (IGROV1 ovarian): > 100 µM | TGI (OVCAR-4 ovarian): > 100 µM | TGI (SN12C renal): > 100 µM | TGI (T-47D breast): 82.9 µM | TGI (SK-MEL-5 melanoma): 30.7 µM | TGI (SR leukemia): 38.4 µM | TGI (HL-60(TB) leukemia): 46.6 µM | TGI (MDA-MB-231 breast): > 100 µM | TGI (SF-295 CNS): > 100 µM | TGI (MALME-3M melanoma): > 100 µM

CCOC(=O)c1cc([N+](=O)[O-])c(Sc2ncnc3nc[nH]c23)c([N+](=O)[O-])c1
TGI (IGROV1 ovarian): 13.7 µM | TGI (SN12C renal): 30.6 µM | TGI (T-47D breast): 30 µM | TGI (SK-MEL-5 melanoma): 23 µM | TGI (SR leukemia): 83.3 µM | TGI (HL-60(TB) leukemia): 23.4 µM | TGI (MDA-MB-231 breast): 19.5 µM | TGI (SF-295 CNS): > 35.6 µM | TGI (MALME-3M melanoma): 18.1 µM

CC(C)C(/C=C/c1ccc(Cl)cc1)=N\NC(=O)N/N=C(/C=C/c1ccc(Cl)cc1)C(C)C
TGI (IGROV1 ovarian): 94.7 µM | TGI (OVCAR-4 ovarian): 36 µM | TGI (SN12C renal): 33.7 µM | TGI (T-47D breast): > 100 µM | TGI (SK-MEL-5 melanoma): > 100 µM | TGI (SR leukemia): 80.7 µM | TGI (HL-60(TB) leukemia): > 100 µM | TGI (MDA-MB-231 breast): 49.4 µM | TGI (SF-295 CNS): 45.2 µM | TGI (MALME-3M melanoma): > 100 µM

COc1ccc2nc3cc(Cl)ccc3c(NCCCCCC(=O)NC(COc3ccc4ccc5cccnc5c4n3)COc3ccc4ccc5cccnc5c4n3)c2c1
TGI (IGROV1 ovarian): 37.4 µM | TGI (OVCAR-4 ovarian): 99.8 µM | TGI (SN12C renal): 31.6 µM | TGI (T-47D breast): 40.1 µM | TGI (SK-MEL-5 melanoma): 30.4 µM | TGI (SR leukemia): 12.3 µM | TGI (HL-60(TB) leukemia): 27.2 µM | TGI (MDA-MB-231 breast): 36.2 µM | TGI (SF-295 CNS): > 100 µM | TGI (MALME-3M melanoma): > 100 µM

Nc1ncnc2c1ccn2-c1cccc(NC(=O)c2ccc(N3CCOCC3)c(C(F)(F)F)c2)c1
GI50 (IGROV1 ovarian): 3.83 µM | TGI (IGROV1 ovarian): 33.2 µM | GI50 (OVCAR-4 ovarian): 3.57 µM | TGI (OVCAR-4 ovarian): 12.5 µM | GI50 (SN12C renal): 2.9 µM | TGI (SN12C renal): 9.64 µM | GI50 (T-47D breast): 2.66 µM | TGI (T-47D breast): 7.92 µM | GI50 (SK-MEL-5 melanoma): 2.56 µM | TGI (SK-MEL-5 melanoma): 13.2 µM | GI50 (SR leukemia): 3.38 µM | TGI (SR leukemia): 20.7 µM | GI50 (HL-60(TB) leukemia): 3.17 µM | TGI (HL-60(TB) leukemia): 8.07 µM | GI50 (MDA-MB-231 breast): 2.47 µM | TGI (MDA-MB-231 breast): 10.9 µM | GI50 (SF-295 CNS): 2.44 µM | TGI (SF-295 CNS): 7.31 µM | GI50 (MALME-3M melanoma): 3.08 µM | TGI (MALME-3M melanoma): 13.2 µM

CCCCCCCCCCCCc1ccsc1-c1ccc(-c2ccc(-c3sccc3CCCCCCCCCCCC)s2)s1
TGI (IGROV1 ovarian): > 100 µM | TGI (SN12C renal): > 100 µM | TGI (T-47D breast): > 100 µM | TGI (SK-MEL-5 melanoma): > 100 µM | TGI (SR leukemia): > 100 µM | TGI (HL-60(TB) leukemia): > 100 µM | TGI (MDA-MB-231 breast): > 100 µM | TGI (SF-295 CNS): > 100 µM
